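The compound was tested at five concentrations on cells cultured in 96-well plates, with a 48-hour exposure period. TGI: total growth inhibition.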
Experiments:
Test in all cases: growth of human tumour cells (NCI), 48 h
[1] = test system: EKVX NSCLC
[2] = test system: MDA-N
[3] = test system: UACC-257 melanoma
[4] = test system: NCI/ADR-RES ovarian
[5] = test system: CCRF-CEM leukemia
[6] = test system: MALME-3M melanoma
[7] = test system: MOLT-4 leukemia
[8] = test system: UO-31 renal
[9] = test system: SNB-19 CNS
[10] = test system: HCT-15 colon
[11] = test system: SW-620 colon
[12] = test system: SF-295 CNS
[13] = test system: OVCAR-5 ovarian
[14] = test system: SK-MEL-2 melanoma
[15] = test system: MCF7 breast
[16] = test system: ACHN renal
[17] = test system: M14 melanoma
[18] = test system: OVCAR-3 ovarian
[19] = test system: HCT-116 colon
[20] = test system: CAKI-1 renal
[21] = test system: SF-539 CNS
[22] = test system: A498 renal
[23] = test system: SR leukemia
[24] = test system: MDA-MB-231 breast
[25] = test system: OVCAR-8 ovarian
[26] = test system: NCI-H23 lung
[27] = test system: NCI-H226 lung
[28] = test system: K-562 leukemia
[29] = test system: KM12 colon
[30] = test system: COLO 205 colon
[31] = test system: HT29 colon
[32] = test system: SK-MEL-5 melanoma
[33] = test system: DU-145 prostate
[34] = test system: HCC-2998 colon
[35] = test system: NCI-H460 lung
[36] = test system: OVCAR-4 ovarian
[37] = test system: U251 CNS
[38] = test system: SK-MEL-28 melanoma
[39] = test system: HOP-62 NSCLC
[40] = test system: RPMI-8226 leukemia
[41] = test system: MDA-MB-435
[42] = test system: SNB-75 CNS
[43] = test system: HOP-92 NSCLC
[44] = test system: SN12C renal
[45] = test system: HL-60(TB) leukemia
[46] = test system: PC-3 prostate
[47] = test system: 786-0 renal
[48] = test system: LOX IMVI melanoma
[49] = test system: A549 NSCLC
[50] = test system: RXF 393 renal
[51] = test system: IGROV1 ovarian
[52] = test system: SF-268 CNS
[53] = test system: BT-549 breast
[54] = test system: TK-10 renal
[55] = test system: UACC-62 melanoma
[56] = test system: SK-OV-3 ovarian

Measured: TGI

CCOC(=O)C(NC(=O)C(CCCCNP(=O)(OCC)OCC)NC(=O)C(C)NC(C)=O)C(C)C (configuration not stated)
> 100 µM: [1] | [2] | [3] | [4] | [5] | [6] | [7] | [8] | [9] | [10] | [11] | [12] | [13] | [14] | [15] | [16] | [17] | [18] | [19] | [20] | [21] | [22] | [23] | [24] | [25] | [26] | [27] | [28] | [29] | [30] | [31] | [32] | [33] | [34] | [35] | [36] | [37] | [38] | [39] | [40] | [41] | [42] | [43] | [44] | [45] | [46] | [47] | [48] | [49] | [50] | [51] | [52] | [53] | [54]

CCCCOCn1c(=O)[nH]c(=O)c2ccccc21
46.7 µM: [8]
55.5 µM: [9]
82.9 µM: [42]
> 100 µM: [1] | [55] | [2] | [3] | [4] | [5] | [7] | [10] | [11] | [12] | [13] | [14] | [15] | [16] | [17] | [18] | [19] | [20] | [21] | [22] | [56] | [23] | [24] | [25] | [27] | [28] | [29] | [30] | [31] | [32] | [33] | [35] | [36] | [37] | [38] | [41] | [43] | [44] | [45] | [47] | [48] | [49] | [50] | [51] | [54]
